Test [1] deals with T1, SLK (Homo sapiens, UniProt Q9H2G2). Nature of the test: PhosphoSens in vitro activity assay. In kind it is biochemical. The conditions noted are these: ATP 150 μM.
The target of test [2] is T2, CAMKK2B (Homo sapiens, UniProt Q96RR4).
T2 construct: purchased in-house DSF kinase panel (SGC-style construct names; the trailing letter is the construct ID)
Nature of the test: DSF Tm panel. The test is classed as binding. The conditions noted are these: 10 μM compound.

Test [3] deals with T3, DAPK1 (DAPK1A) (Homo sapiens, UniProt P53355).
T3 construct: purchased in-house DSF kinase panel (SGC-style construct names; the trailing letter is the construct ID)
T3 sequence (P53355 1-285): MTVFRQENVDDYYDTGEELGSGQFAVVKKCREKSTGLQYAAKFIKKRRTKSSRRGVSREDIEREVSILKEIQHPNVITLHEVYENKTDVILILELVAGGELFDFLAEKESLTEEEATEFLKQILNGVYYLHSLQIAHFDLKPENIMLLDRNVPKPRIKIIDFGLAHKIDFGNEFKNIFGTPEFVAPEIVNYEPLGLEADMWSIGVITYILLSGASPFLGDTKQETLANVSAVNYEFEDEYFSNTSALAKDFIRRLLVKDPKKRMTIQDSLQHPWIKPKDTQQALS
Nature of the test: DSF Tm panel. The test is classed as binding. As to conditions: 10 μM compound.

In test [4] the target is T4, STK4 (STK4A) (Homo sapiens, UniProt Q13043).
T4 construct: purchased in-house DSF kinase panel (SGC-style construct names; the trailing letter is the construct ID)
T4 sequence (Q13043 1-311): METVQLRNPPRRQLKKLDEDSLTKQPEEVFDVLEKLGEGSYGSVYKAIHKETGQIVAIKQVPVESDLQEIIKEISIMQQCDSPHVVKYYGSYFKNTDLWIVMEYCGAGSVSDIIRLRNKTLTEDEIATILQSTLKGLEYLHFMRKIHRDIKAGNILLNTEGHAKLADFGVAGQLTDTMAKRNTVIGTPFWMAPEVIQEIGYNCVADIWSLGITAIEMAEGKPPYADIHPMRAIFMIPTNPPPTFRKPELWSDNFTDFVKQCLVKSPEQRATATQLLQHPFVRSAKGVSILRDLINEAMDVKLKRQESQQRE
Kind of test: DSF Tm panel. The test is classed as binding. As to conditions: 10 μM compound.

Test [5] addresses T5, CDK2A (Homo sapiens, UniProt P24941).
T5 construct: purchased in-house DSF kinase panel (SGC-style construct names; the trailing letter is the construct ID)
Kind of test: DSF Tm panel. The test is classed as binding. The conditions noted are these: 10 μM compound.

In test [6] the target is T6, CDKL1A (Homo sapiens, UniProt Q00532).
T6 construct: purchased in-house DSF kinase panel (SGC-style construct names; the trailing letter is the construct ID)
T6 sequence (Q00532 1-303): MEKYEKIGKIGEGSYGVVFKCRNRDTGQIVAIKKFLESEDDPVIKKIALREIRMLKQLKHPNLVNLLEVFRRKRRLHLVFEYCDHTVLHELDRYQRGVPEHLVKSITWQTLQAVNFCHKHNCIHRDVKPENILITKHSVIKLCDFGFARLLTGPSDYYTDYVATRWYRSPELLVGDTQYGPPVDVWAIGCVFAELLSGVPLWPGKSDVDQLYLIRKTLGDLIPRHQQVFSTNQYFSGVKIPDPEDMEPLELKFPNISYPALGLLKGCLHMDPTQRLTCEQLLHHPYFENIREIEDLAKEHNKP
Kind of test: DSF Tm panel. In kind it is binding. As to conditions: 10 μM compound.

In test [7] the target is T7, CASKA (Homo sapiens, UniProt O14936).
T7 construct: purchased in-house DSF kinase panel (SGC-style construct names; the trailing letter is the construct ID)
T7 sequence (O14936 12-276): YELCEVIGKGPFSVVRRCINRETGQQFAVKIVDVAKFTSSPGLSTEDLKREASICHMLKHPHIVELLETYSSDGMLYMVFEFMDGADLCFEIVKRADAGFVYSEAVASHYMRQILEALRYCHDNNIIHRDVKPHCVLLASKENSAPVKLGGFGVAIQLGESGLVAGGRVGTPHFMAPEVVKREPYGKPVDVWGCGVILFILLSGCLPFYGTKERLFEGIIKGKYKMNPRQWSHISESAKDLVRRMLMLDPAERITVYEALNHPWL
Kind of test: DSF Tm panel. The test is classed as binding. As to conditions: 10 μM compound.

Test [8] addresses T8, MST3A (Homo sapiens, UniProt Q9Y6E0).
T8 construct: purchased in-house DSF kinase panel (SGC-style construct names; the trailing letter is the construct ID)
Nature of the test: DSF Tm panel. As to conditions: 10 μM compound. The test is classed as binding.

The target of test [9] is T9, NEK1A (Homo sapiens, UniProt Q96PY6).
T9 construct: purchased in-house DSF kinase panel (SGC-style construct names; the trailing letter is the construct ID)
T9 sequence (Q96PY6 1-328): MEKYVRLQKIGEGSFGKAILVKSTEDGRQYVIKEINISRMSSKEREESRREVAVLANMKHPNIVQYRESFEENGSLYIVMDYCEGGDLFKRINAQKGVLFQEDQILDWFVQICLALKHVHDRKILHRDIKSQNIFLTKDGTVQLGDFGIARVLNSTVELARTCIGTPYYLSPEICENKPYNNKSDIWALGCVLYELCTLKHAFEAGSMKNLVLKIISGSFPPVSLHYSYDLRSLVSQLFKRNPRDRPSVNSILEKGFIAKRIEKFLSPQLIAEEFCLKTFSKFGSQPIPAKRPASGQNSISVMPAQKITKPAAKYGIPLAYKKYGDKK
Kind of test: DSF Tm panel. In kind it is binding. As to conditions: 10 μM compound.

Test [10] concerns the target T10, MST4A (Homo sapiens, UniProt Q9P289).
T10 construct: purchased in-house DSF kinase panel (SGC-style construct names; the trailing letter is the construct ID)
Nature of the test: DSF Tm panel. In kind it is binding. As to conditions: 10 μM compound.

The target of test [11] is T11, SRPK1A (Homo sapiens, UniProt Q96SB4).
T11 construct: purchased in-house DSF kinase panel (SGC-style construct names; the trailing letter is the construct ID)
T11 sequence (Q96SB4 80-653): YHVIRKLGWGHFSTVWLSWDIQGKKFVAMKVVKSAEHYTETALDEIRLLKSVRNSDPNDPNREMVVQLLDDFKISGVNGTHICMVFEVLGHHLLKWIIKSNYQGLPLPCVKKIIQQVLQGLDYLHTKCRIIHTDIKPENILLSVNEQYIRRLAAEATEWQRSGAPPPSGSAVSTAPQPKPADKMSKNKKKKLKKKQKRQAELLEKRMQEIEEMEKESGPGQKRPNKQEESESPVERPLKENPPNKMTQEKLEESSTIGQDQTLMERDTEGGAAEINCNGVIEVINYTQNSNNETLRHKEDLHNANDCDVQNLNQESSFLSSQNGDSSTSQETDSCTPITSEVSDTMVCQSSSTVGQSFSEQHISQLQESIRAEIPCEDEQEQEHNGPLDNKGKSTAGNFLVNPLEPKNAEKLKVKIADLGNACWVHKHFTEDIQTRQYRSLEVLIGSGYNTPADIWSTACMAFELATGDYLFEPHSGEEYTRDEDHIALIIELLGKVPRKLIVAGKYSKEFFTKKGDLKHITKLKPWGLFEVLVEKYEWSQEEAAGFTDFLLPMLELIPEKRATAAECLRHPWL
Nature of the test: DSF Tm panel. The test is classed as binding. The conditions noted are these: 10 μM compound.

Test [12] has as its target T12, DAPK3 (DAPK3A) (Homo sapiens, UniProt O43293).
T12 construct: purchased in-house DSF kinase panel (SGC-style construct names; the trailing letter is the construct ID)
Nature of the test: DSF Tm panel. The test is classed as binding. The conditions noted are these: 10 μM compound.

In test [13] the test system is RPS6KA1A. Kind of test: DSF Tm panel. In kind it is binding. The conditions noted are these: 10 μM compound.
Test [14] concerns the target T13, CLK1A (Homo sapiens, UniProt P49759).
T13 construct: purchased in-house DSF kinase panel (SGC-style construct names; the trailing letter is the construct ID)
Kind of test: DSF Tm panel. In kind it is binding. The conditions noted are these: 10 μM compound.

In test [15] the target is T14, PKMYT1A (Homo sapiens, UniProt Q99640).
T14 construct: purchased in-house DSF kinase panel (SGC-style construct names; the trailing letter is the construct ID)
T14 sequence (Q99640 75-362): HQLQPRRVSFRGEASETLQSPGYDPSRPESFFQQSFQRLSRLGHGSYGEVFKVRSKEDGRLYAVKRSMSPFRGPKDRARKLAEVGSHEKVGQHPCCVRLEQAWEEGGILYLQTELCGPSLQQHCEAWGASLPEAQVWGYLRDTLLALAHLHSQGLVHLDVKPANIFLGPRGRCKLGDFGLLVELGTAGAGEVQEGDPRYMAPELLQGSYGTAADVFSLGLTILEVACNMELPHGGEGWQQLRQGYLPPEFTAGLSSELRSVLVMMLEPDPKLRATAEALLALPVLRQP
Kind of test: DSF Tm panel. In kind it is binding. The conditions noted are these: 10 μM compound.

Test [16] addresses T15, STK10 (Homo sapiens, UniProt O94804).
T15 construct: purchased in-house DSF kinase panel (SGC-style construct names; the trailing letter is the construct ID)
Kind of test: PhosphoSens in vitro activity assay. The test is classed as biochemical. The conditions noted are these: ATP 160 μM.

Test [17] has as its target T16, FGFR2A (Homo sapiens, UniProt P21802).
T16 construct: purchased in-house DSF kinase panel (SGC-style construct names; the trailing letter is the construct ID)
Kind of test: DSF Tm panel. In kind it is binding. As to conditions: 10 μM compound.

The target of test [18] is T17, PCTK1A (Homo sapiens, UniProt Q00536).
T17 construct: purchased in-house DSF kinase panel (SGC-style construct names; the trailing letter is the construct ID)
T17 sequence (Q00536 163-478): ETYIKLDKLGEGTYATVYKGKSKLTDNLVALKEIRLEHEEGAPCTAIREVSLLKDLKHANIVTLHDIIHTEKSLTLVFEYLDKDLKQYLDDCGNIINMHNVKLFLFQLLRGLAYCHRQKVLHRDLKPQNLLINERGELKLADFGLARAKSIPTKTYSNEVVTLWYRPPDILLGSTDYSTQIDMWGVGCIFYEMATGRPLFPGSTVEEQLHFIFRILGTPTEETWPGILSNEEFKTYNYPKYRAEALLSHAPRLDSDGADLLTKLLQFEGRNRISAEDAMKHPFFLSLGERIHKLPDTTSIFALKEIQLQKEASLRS
Nature of the test: DSF Tm panel. In kind it is binding. As to conditions: 10 μM compound.

For test [19], the target named is T18, OSR1A (Homo sapiens, UniProt O95747).
T18 construct: purchased in-house DSF kinase panel (SGC-style construct names; the trailing letter is the construct ID)
T18 sequence (O95747 17-291): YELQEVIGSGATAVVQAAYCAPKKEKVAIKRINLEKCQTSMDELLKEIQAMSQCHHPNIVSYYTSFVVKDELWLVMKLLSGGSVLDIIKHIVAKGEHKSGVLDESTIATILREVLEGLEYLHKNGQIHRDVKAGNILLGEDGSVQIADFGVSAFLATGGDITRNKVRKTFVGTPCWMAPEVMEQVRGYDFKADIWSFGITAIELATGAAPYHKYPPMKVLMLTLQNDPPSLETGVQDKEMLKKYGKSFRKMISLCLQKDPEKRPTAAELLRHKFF
Kind of test: DSF Tm panel. The test is classed as binding. The conditions noted are these: 10 μM compound.

Test [20] has as its target T19, BRAFA (Homo sapiens, UniProt P15056).
T19 construct: purchased in-house DSF kinase panel (SGC-style construct names; the trailing letter is the construct ID)
Kind of test: DSF Tm panel. In kind it is binding. As to conditions: 10 μM compound.

Test [21] deals with T1, SLK. Nature of the test: NanoBRET target engagement assay. In kind it is cell-based. The arrangement: has a greater impact on the full-length protein than on the kinase domains; host or cells: HEK293T (ATCC CRL-3216). The conditions noted are these: HEK293T cells.
For test [22], the target named is T20, DYRK1AA (Homo sapiens, UniProt Q13627).
T20 construct: purchased in-house DSF kinase panel (SGC-style construct names; the trailing letter is the construct ID)
Nature of the test: DSF Tm panel. In kind it is binding. As to conditions: 10 μM compound.

Test [23] deals with T21, GPRK5A (Homo sapiens, UniProt P34947).
T21 construct: purchased in-house DSF kinase panel (SGC-style construct names; the trailing letter is the construct ID)
T21 sequence (P34947 186-514): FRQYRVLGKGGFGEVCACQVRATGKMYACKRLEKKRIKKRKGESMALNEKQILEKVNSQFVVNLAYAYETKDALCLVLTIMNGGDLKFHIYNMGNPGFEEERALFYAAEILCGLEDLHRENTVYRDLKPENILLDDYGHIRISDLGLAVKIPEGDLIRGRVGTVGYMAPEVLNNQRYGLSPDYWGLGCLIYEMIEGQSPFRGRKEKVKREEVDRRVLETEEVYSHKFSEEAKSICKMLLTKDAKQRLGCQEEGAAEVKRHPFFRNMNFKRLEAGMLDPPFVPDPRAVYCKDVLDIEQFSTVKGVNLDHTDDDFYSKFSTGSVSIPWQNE
Kind of test: DSF Tm panel. The test is classed as binding. As to conditions: 10 μM compound.

Test [24] addresses T22, MAPK1A (Homo sapiens, UniProt P28482).
T22 construct: purchased in-house DSF kinase panel (SGC-style construct names; the trailing letter is the construct ID)
Nature of the test: DSF Tm panel. The conditions noted are these: 10 μM compound. The test is classed as binding.

Structures are written as SMILES. Where “and” joins values, the source holds several entries; their conditions need not be identical. Equal entries are not always repeated. Where only a bound is given, the exact number is not on record here.

T12 sequence (O43293 whole entry): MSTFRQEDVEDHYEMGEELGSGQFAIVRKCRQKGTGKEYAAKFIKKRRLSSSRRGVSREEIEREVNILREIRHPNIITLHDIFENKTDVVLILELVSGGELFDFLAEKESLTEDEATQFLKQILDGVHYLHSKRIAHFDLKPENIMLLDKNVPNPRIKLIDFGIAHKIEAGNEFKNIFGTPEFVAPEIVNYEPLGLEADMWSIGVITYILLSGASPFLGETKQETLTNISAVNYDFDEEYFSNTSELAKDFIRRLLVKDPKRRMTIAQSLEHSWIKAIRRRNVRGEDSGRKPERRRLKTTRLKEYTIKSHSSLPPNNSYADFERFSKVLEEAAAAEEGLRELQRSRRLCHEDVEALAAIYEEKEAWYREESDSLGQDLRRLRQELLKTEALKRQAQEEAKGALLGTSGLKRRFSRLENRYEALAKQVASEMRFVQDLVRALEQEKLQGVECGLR
T15 sequence (O94804 18-317 limits assumed): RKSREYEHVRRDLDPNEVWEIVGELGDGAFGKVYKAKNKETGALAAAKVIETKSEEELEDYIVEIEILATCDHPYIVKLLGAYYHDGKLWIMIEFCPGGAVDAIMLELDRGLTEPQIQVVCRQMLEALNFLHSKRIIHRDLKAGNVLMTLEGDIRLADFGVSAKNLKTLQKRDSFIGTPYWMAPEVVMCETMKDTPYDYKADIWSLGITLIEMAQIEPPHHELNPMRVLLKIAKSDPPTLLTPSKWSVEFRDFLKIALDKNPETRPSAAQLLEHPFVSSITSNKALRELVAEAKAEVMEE
T10 sequence (Q9P289 1-300): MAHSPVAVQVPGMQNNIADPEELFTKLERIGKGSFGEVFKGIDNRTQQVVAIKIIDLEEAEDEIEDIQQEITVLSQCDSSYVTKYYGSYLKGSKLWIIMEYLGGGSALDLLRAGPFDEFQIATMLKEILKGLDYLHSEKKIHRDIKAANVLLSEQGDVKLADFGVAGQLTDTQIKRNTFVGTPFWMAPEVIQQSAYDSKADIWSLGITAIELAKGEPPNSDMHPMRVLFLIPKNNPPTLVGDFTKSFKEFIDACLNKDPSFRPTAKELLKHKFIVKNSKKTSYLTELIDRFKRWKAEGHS
T8 sequence (Q9Y6E0 whole entry): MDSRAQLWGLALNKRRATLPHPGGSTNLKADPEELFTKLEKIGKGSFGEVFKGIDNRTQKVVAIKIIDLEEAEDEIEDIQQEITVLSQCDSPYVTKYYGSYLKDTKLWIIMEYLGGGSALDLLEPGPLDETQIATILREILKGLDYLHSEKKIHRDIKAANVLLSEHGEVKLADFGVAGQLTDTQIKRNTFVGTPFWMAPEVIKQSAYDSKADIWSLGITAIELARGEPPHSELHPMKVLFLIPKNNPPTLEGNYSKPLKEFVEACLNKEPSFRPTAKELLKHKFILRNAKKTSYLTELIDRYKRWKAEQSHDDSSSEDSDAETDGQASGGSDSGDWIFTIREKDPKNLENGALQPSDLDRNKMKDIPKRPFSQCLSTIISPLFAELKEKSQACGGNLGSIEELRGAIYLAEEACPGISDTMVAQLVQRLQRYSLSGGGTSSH
T13 sequence (P49759 148-484): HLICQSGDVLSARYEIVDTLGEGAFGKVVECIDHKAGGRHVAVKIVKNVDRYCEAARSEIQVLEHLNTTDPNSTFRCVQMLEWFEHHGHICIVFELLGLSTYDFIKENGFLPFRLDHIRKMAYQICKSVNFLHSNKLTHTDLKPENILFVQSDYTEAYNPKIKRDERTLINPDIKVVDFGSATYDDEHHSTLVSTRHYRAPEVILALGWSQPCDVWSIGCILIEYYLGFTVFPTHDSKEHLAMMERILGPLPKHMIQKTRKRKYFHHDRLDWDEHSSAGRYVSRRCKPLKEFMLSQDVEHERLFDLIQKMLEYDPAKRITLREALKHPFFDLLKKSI
T19 sequence (P15056 448-723): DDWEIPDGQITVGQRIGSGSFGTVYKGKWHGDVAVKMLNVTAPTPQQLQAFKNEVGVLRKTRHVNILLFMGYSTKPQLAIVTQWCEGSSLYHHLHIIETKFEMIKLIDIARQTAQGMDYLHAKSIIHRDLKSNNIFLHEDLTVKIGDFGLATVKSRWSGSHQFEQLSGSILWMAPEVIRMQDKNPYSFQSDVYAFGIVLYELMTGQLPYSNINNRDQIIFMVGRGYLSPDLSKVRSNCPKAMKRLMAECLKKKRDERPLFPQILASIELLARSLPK
T2 sequence (Q96RR4 161-449): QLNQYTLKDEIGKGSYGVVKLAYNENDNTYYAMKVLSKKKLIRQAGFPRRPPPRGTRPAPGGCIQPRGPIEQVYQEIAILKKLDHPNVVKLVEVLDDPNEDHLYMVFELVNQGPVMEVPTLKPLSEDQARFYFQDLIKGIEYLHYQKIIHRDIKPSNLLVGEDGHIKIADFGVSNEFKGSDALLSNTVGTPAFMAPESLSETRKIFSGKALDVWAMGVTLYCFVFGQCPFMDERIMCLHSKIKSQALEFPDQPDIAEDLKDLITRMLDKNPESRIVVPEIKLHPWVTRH
T16 sequence (P21802 458-770): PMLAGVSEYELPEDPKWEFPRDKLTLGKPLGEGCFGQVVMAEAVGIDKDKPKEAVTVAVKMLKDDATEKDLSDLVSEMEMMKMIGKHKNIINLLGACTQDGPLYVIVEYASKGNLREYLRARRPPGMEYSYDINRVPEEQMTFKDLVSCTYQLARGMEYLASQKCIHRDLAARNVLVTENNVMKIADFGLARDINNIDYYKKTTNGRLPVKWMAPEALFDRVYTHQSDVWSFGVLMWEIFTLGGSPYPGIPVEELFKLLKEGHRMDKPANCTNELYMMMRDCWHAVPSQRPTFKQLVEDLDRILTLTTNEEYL

Consider `O=C(NCc1ccc(Cl)cc1F)Nc1ccc2cc1OCCOCCNc1ccn3ncc-2c3n1` [compound 21], for which the IC50 in test [1] was 8.88 ± 1.41 µM; in test [16] it was 2.62 ± 0.61 µM. Moreover, the ΔTm at 10 µM in [2] came out at 3.5 °C; in [3], 0.3 °C; in test [4] it was 4.9 °C; in [5], 5.9 °C; in [6], 0 °C; in test [7] it was 2.7 °C. For the same compound, the ΔTm at 10 µM was determined as 0.6 °C in test [8]; 0.7 °C in [9]; 1.1 °C in [10]; 0.4 °C in [11]; 1.1 °C in test [12]; 2.8 °C in test [14]. The ΔTm at 10 µM in [15] was found to be 1.9 °C; in test [17], 2.3 °C; in [18], 1.1 °C; in [19] it was 1.6 °C; in test [20], 0.5 °C; in test [22] it was 0.7 °C. Besides, the results for the shift in melting temperature (ΔTm) at 10 µM in test [23] and in [24] were 1.4 °C and 0.3 °C, respectively. Besides, the “ΔTm RPS6KA1A” value in test [13] is 1,1 °C. In test [21], this compound displayed an EC50 greater than 50 µM.

For `Cc1cc(Cl)ccc1CNC(=O)Nc1ccc2cc1OCCOCCNc1ccn3ncc-2c3n1` [compound 23], the half-inhibitory concentration (IC50) was 3.43 ± 1.12 µM in test [1]; 0.85 µM and < 1 µM in test [16]. Further, the ΔTm at 10 µM in test [2] came out at 1.9 °C; in test [3] it was 0.1 °C; in [4], 7.4 °C; in [5] it was 3.1 °C; in [6], 0.4 °C; in test [7], 2.5 °C. In addition, the thermal shift (ΔTm) at 10 µM in [8] was 0.3 °C; in test [9] it was 0.9 °C; in test [10] it was 2.1 °C; in test [11], 0.2 °C; in test [12] it was -0.3 °C; in [14] it was 2.6 °C. Moreover, the ΔTm at 10 µM was 2.1 °C in test [15]; 1.9 °C in test [17]; 2.8 °C in test [18]; 0.8 °C in [19]; 0.5 °C in test [20]; 2.6 °C in test [22]. The ΔTm at 10 µM in [23] and in test [24] was 0.8 °C each time. Besides, in [13], the “ΔTm RPS6KA1A” value is 0,8 °C. The compound also showed a 50% effective concentration (EC50) in test [21] greater than 50 µM.

As to `Cc1cc(Br)ccc1CNC(=O)Nc1ccc2cc1OCCOCCNc1ccn3ncc-2c3n1` [compound 24], the IC50 in test [1] is 5.35 ± 1.36 µM; in test [16], 4.62 ± 0.88 µM. Besides, the ΔTm at 10 µM was 0.7 °C in [2]; -0.3 °C in [3]; 2.8 °C in test [4]; 1.6 °C in [5]; 0.5 °C in test [6]; 0.6 °C in test [7]. For the same compound, the ΔTm at 10 µM in test [8] is -4.3 °C; in test [9] it was -0.4 °C; in [10], 1.2 °C; in test [11], -0.2 °C; in test [12] it was 0.4 °C; in test [14] it was 1 °C. For the same compound, the ΔTm at 10 µM was 0.5 °C in test [15]; 2.2 °C in [17]; 0.7 °C in test [18]; 1.6 °C in test [19]; -0.3 °C in [20]; 0.4 °C in test [22]. For the same compound, the ΔTm at 10 µM in [23] amounted to 0 °C; in [24], 0.7 °C. Besides, the “ΔTm RPS6KA1A” value in [13] was 0,1 °C. In test [21], this compound returned an EC50 greater than 50 µM.

For the origin of these results see publication PMC12621043, “Un-LOK-ing a New Approach for Conformational Selective Targeting of STK10 (LOK)” (ACS Medicinal Chemistry Letters, 2025).
